Key:
[1] = target: T1, PAR2 (Mus musculus, UniProt P55086); assay: Measurement of PAR2 agonist (SLIGRL-NH2)-induced salivation in mouse; format: in vivo; conditions: C57BL/6J male mice, 0.3 mg/mL solution 10 mL/kg orally, 60 min before SLIGRL-NH2 i.p., saliva collected 10 min
T1 construct: orally administered to C57BL/6J male mice (Charles River), 6-10 weeks of age; tissue Charles River; host or cells: Living C57BL/6J male mice (in vivo; saliva secretion)
T1 sequence (P55086 26-399): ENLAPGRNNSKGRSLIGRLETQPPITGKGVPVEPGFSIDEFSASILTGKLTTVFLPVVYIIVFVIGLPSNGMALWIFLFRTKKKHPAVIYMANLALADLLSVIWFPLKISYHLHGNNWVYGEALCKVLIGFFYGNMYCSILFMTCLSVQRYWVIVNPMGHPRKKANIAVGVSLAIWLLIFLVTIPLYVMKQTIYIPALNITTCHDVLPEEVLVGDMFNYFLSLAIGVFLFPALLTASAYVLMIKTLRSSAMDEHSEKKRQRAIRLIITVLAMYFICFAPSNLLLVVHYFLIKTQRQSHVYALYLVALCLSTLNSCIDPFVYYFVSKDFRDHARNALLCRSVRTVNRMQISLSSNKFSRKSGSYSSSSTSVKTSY
Procedure: The test compound was added to a 0.5% carboxymethyl cellulose solution to which 2% DMSO was added, so as to have the final concentration of 0.3 mg/mL, thereby preparing an administration solution containing the test compound. The administration solution containing the test compound (10 mL/kg) was orally administered to C57BL/6J male mice (Charles River), 6-10 weeks of age, using an oral sonde and a syringe. Forty-five minutes after the administration of the test compound, 10 mL/kg of a 20% (w/v) urethane solution was intraperitoneal administered to the mice which were then anesthetized. Sixty minutes after the administration of the test compound, 10 mL/kg of a 0.1 mg/mL SLIGRL-NH2 (SEQ ID NO: 2) solution was intraperitoneally administered as the PAR2 agonist and a cotton ball was immediately placed in the oral cavity of the mouse to collect the saliva. Ten minutes after the administration of the PAR2 agonist, the cotton ball was removed and weighed to measure the amount of saliva secreted.
Note that Reference Example 1 in Table 4 is Compound (XIX). Additionally, Comparative Compound in Table 4 is Compound (XX).

[2] = tested on: OXA-induced enteritis in BALB/c male mice; assay: Model mouse for enteritis (OXA-induced, bowel length); format: in vivo; conditions: po, 48 h, 0.1 mg/mL solution 10 mL/kg orally twice (1 hour before and day after OXA induction), length of colon and rectum two days after induction, read-out: Inhibitory activity on bowel shortening (%)
Procedure: Generally, the bowel length is known to be shorter during enteritis (Maxwell, J. R. et al. Curr. Protoc. Pharmacol. Chapter 5: Unit 5.58, 2009). The bowel length in an enteritis model was measured to evaluate the effect of the test compound.
The test compound was added to a 0.5% carboxymethyl cellulose solution so as to have a final concentration of 0.1 mg/mL, thereby preparing an administration solution containing the test compound. Hapten used was 4-ethoxymethylene-2-phenyloxazol-5-one (OXA, SIGMA-ALDRICH).
One hundred (100) μL of a solution of OXA diluted to 0.3% with ethanol was applied to the shaved abdominal region of BALB/c male mice (Charles River), 6-10 weeks of age, to create the sensitization. Five days after the sensitization, OXA was intrarectally administered to induce an enteritis reaction. More specifically, a syringe equipped with a sonde for oral administration was inserted into the anus of the mouse anesthetized by the inhalation of isoflurane at a concentration of 4-5% and 50 μL of the OXA solution adjusted to 1% with a solvent of 50% ethanol/50% distilled water was administered into the rectum.
One hour before and on the day following the induction of enteritis, the administration solution containing the test compound (10 mL/kg) was orally administered twice in total to the mice. Two days after the induction of enteritis, the mice were euthanized by cervical dislocation and subsequently the cecum to the anus was collected to measure the combined length of the colon and the rectum using a ruler, thereby evaluating the action of the test compound.
Note that Reference Example 1 in Table 6 is Compound (XIX).

[3] = target: T2, PAR2 (Homo sapiens, UniProt P55085); assay: Intracellular calcium concentration measurement (trypsin-induced calcium elevation, FDSS6000); format: cell-based; conditions: HEK293 cells, trypsin 5 U/mL as agonist, test compound added 30 min before measurement; read-out: Inhibitory activity on intracellular calcium elevation (IC50 (nM))
T2 construct: Human embryonic kidney cell line HEK293 cells cultured using DMEM culture medium; endogenous in cells; host or cells: HEK293
T2 sequence (P55085 26-397): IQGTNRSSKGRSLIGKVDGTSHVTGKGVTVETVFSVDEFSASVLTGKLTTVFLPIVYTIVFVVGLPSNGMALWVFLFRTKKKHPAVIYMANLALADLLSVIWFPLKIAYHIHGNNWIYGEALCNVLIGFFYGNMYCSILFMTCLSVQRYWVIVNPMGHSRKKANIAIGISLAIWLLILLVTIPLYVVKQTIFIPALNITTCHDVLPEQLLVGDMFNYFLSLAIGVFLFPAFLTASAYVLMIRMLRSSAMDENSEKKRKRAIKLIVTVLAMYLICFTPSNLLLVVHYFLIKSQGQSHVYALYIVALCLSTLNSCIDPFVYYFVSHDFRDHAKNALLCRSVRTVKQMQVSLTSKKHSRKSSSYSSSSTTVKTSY
Source text: In the present specification, examples of the measurement method for the PAR2 inhibitory activity include measurement method for a concentration elevation of intracellular calcium; measurement method for a production increase of intracellular inositol trisphosphate; measurement method for an increase in intracellular protein phosphorylation by protein kinase C and MAP kinase; and measurement method for a production amount or a release amount of inflammation-related physiologically active substances such as cytokine, chemokine, prostaglandin and nitric monoxide. Examples of the measurement method for an elevation of intracellular calcium concentration include a method wherein a calcium-binding fluorescent probe is allowed to be incorporated in advance into a cultured cell line or an animal-derived isolated cell having PAR2, or a cell in which PAR2 is artificially expressed, a protease having the PAR2 activity function such as trypsin or a PAR2 agonist (synthetic peptides such as SLIGKV-NH2 (SEQ ID NO: 1) and SLIGRL-NH2 (SEQ ID NO: 2) is added to activate PAR2 whereby fluctuating intracellular calcium concentrations are detected as changes in the fluorescent signal. Alternatively, it is also possible to measure an intracellular calcium concentration by determining the quantity of a fluorescence intensity produced in proportion to the calcium concentration using a calcium-binding luminescent protein overexpressing cell line such as Aequorin. Specifically, examples include the methods described in Test Examples of the present specification.
Human embryonic kidney cell line HEK293 cells cultured using DMEM culture medium (Invitrogen) with 3% fetal bovine serum (3% FBS)-added was prepared to have a concentration of 2×10^5 cells/mL, and plated in a type I collagen-coated 384-well black plate (clear bottom) (Greiner) so as to be 25 μL/well and cultured in a CO2 incubator overnight. FLIPR Calcium Assay Kit (Molecular Devices) prepared with Hanks-20 mM Hepes buffer (pH 7.4) was added to the cells so as to be 25 μL/well and cultured in the CO2 incubator for 1 hour. Trypsin (SIGMA-ALDRICH, catalog number: T8816, Enzyme Commission Number 3.4.21.4) prepared so as to be 5 U/mL as final concentration (BAEE unit) with Hanks-20 mM Hepes buffer (pH 7.4) was added to a 384-well deep well polypropylene plate (Greiner) to be an agonist reagent plate. Thirty minutes before the measurement using FDSS6000 (Hamamatsu Photonics K.K.), a test compound prepared with Hanks-20 mM Hepes buffer (pH 7.4) was added to the cell so as to be 8 μL/well. The cell plate to which the test compound was added and the reagent plate were set on FDSS6000, 22 μL/well of the agonist solution was added from the reagent plate, and the change in intracellular calcium concentration was measured with a CCD camera. The measurement was carried out at 37° C. for 120 seconds and the addition of reagent from the reagent plate to the cell plate was carried out using a built-in 384-well automatic dispenser of FDSS6000.
Note that Reference Example 1 in Table 3 is the compound represented by formula (XIX) synthesized in the above Reference Example 1 (hereinafter, also referred to as Compound (XIX)). Additionally, the “Comparative Compound” in Table 3 is the compound described in Patent Literature 4 represented by the following formula (XX) (I-343; hereinafter, also referred to as Compound (XX)).

[4] = tested on: DNFB-induced dermatitis in BALB/c male mice; assay: Mouse dermatitis model (DNFB-induced auricle swelling); format: in vivo; conditions: 0.3 mg/mL solution 10 mL/kg orally 8 hours after DNFB induction, auricle thickness on following day
Procedure: The test compound was added to a 0.5% carboxymethyl cellulose solution so as to have the final concentration of 0.3 mg/mL, thereby preparing an administration solution containing the test compound. Hapten used was 2,4-dinitrofluorobenzene (DNFB, Wako Pure Chemical Industries).
Twenty-five (25) μL of a solution of DNFB diluted to 0.4% with a mixed solvent of acetone and an olive oil in a volume ratio of 2:1 was applied twice to the shaved abdominal region of BALB/c male mice (Charles River), 6-10 weeks of age, over a period of 2 days to create the sensitization. Four days after the sensitization, on the first day, 20 μL of a solution of DNFB diluted to 0.2% with a mixed solvent of acetone and an olive oil in a volume ratio of 2:1 was applied to the right auricle of the mouse to induce dermatitis. Eight hours after the induction of dermatitis, the administration solution containing the test compound (10 mL/kg) was orally administered to the mouse. On the day following the induction of dermatitis, the right auricle thickness of the mouse was measured using a thickness gauge to evaluate the action of the test compound.
Note that Reference Example 1 in Table 5 is Compound (XIX).

Inhibitory activity on the PAR2-dependent saliva secretion (%) [1]	IC50 [3]	Structure (SMILES)	inhibition in vivo at 100 µg/mL, 1 mg/kg [2]	Inhibitory activity on auricle swelling (%) [4]
91.3%	7.54 nM	CO[C@H]1CN(C(=O)c2cc3nc(-c4cc(F)c(F)c(F)c4)cc(N(C)c4c(C)cccc4C)n3n2)CC[C@H]1CC(=O)O (relative stereo) [Example 2, 2-((3R*,4S*)-1-(7-((2,6-dimethylphenyl)(methyl)amino)-5-(3,4,5-trifluorophenyl)pyrazolo[1,5-a]pyrimidine-2-carbonyl)-3-methoxypiperidin-4-yl)acetic acid]	69.7%	
94.5%	2.45 nM	COc1cccc(C)c1N(C)c1cc(-c2cc(F)c(F)c(F)c2)nc2cc(C(=O)N3CC[C@@H](CC(=O)O)[C@@H](F)C3)nn12 (relative stereo) [Example 5, 2-((3R*,4S*)-3-fluoro-1-(7-((2-methoxy-6-methylphenyl)(methyl)amino)-5-(3,4,5-trifluorophenyl)pyrazolo[1,5-a]pyrimidine-2-carbonyl)piperidin-4-yl)acetic acid]	106%	
97.0%	2.79 nM	COc1cccc(C)c1N(C)c1cc(-c2cc(F)c(F)c(F)c2)nc2cc(C(=O)N3CC[C@@H](CC(=O)O)[C@@H](OC)C3)nn12 (relative stereo) [Example 6, 2-((3R*,4S*)-3-methoxy-1-(7-((2-methoxy-6-methylphenyl)(methyl)amino)-5-(3,4,5-trifluorophenyl)pyrazolo[1,5-a]pyrimidine-2-carbonyl)piperidin-4-yl)acetic acid]	79.6%	

The remaining lines, values behind:

Structure (SMILES)	Inhibitory activity on the PAR2-dependent saliva secretion (%) [1]	IC50 [3]	inhibition in vivo at 100 µg/mL, 1 mg/kg [2]	Inhibitory activity on auricle swelling (%) [4]
CN(c1c(F)cccc1Cl)c1cc(-c2cc(F)c(F)c(F)c2)nc2cc(C(=O)N3CC[C@@H](CC(=O)O)[C@@H](F)C3)nn12 (relative stereo) [Example 13, 2-((3R*,4S*)-1-(7-((2-chloro-6-fluorophenyl)(methyl)amino)-5-(3,4,5-trifluorophenyl)pyrazolo[1,5-a]pyrimidine-2-carbonyl)-3-fluoropiperidin-4-yl)acetic acid]	95.0%	4 nM	62.2%	
COc1cccc(F)c1N(C)c1cc(-c2cc(F)c(F)c(F)c2)nc2cc(C(=O)N(C)[C@H](C)CC(=O)O)nn12 [Example 7, (R)-3-(7-((2-fluoro-6-methoxyphenyl)(methyl)amino)-N-methyl-5-(3,4,5-trifluorophenyl)pyrazolo[1,5-a]pyrimidine-2-carboxamide)butanoic acid]	96.0%	1.74 nM		61.6%
CCCN(c1cc(-c2cc(F)c(Cl)c(F)c2)nc2cc(C(=O)N3C[C@@H]4[C@@H](CC(=O)O)[C@@H]4C3)nn12)C(C)C [Example 15, 2-((1α,5α,6α)-3-(5-(4-chloro-3,5-difluorophenyl)-7-(isopropyl(propyl)amino)pyrazolo[1,5-a]pyrimidine-2-carbonyl)-3-azabicyclo[3.1.0]hexan-6-yl)acetic acid]		12.8 nM		17.4%
CC(C)CN(c1cc(-c2cc(F)c(F)c(F)c2)nc2cc(C(=O)N3C[C@@H]4[C@@H](CC(=O)O)[C@@H]4C3)nn12)[C@@H](C)c1ccccc1 [Example 16, 2-((1α,5α,6α)-3-(7-(isobutyl((S)-1-phenylethyl)amino)-5-(3,4,5-trifluorophenyl)pyrazolo[1,5-a]pyrimidine-2-carbonyl)-3-azabicyclo[3.1.0]hexan-6-yl)acetic acid]	98.2%	26.3 nM	74.5%	
